Assay results published in ChEMBL document CHEMBL5137112, “Semisynthetic Transformations on (+)-Boldine Reveal a 5-HT2A/2CR Antagonist” (J Nat Prod, 2022).

Assays:
[1] = molecular target: T1, 5-hydroxytryptamine receptor 2A (Homo sapiens, UniProt P28223); assay: Displacement of [3H]Ketanserin from 5-HT2A receptor (unknown origin) assessed as inhibition constant incubated for 90 mins by MicroBeta scintillation counting method
[2] = molecular target: T2, 5-hydroxytryptamine receptor 2B (Homo sapiens, UniProt P41595); assay: Displacement of [3H]LSD from 5-HT2B receptor (unknown origin) assessed as inhibition constant incubated for 90 mins by MicroBeta scintillation counting method
[3] = molecular target: T3, 5-hydroxytryptamine receptor 2C (Homo sapiens, UniProt P28335); assay: Displacement of [3H]Mesulergine from 5-HT2C receptor (unknown origin) assessed as inhibition constant incubated for 90 mins by MicroBeta scintillation counting method
T3 sequence (P28335 whole entry): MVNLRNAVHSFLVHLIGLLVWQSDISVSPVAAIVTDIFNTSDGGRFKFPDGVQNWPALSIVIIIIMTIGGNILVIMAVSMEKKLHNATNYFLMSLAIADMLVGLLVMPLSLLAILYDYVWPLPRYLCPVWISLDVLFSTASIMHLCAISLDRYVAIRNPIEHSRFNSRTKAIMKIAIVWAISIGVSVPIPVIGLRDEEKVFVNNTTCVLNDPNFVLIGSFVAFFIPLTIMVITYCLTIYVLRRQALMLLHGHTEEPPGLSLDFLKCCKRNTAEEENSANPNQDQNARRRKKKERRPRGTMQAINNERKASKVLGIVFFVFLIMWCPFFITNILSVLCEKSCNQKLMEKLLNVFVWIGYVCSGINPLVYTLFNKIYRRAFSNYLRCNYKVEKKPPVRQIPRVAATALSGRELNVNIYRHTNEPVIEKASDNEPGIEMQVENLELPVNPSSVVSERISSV

[4] = molecular target: Serotonin 2 receptors; 5-HT2a & 5-HT2c (Homo sapiens) (UniProt P28223+P28335); assay: Selectivity ratio of Ki for 5-HT2A receptor (unknown origin) to Ki for 5-HT2C receptor (unknown origin); format: protein assay
Homo sapiens [5] = species: Homo sapiens; assay: Selectivity ratio of Ki for 5-HT2B receptor (unknown origin) to Ki for 5-HT2C receptor (unknown origin)
Homo sapiens [6] = species: Homo sapiens; assay: Selectivity ratio of Ki for 5-HT2A receptor (unknown origin) to Ki for 5-HT2B receptor (unknown origin)
[7] = molecular target: T1, 5-hydroxytryptamine receptor 2A; assay: Antagonist activity at 5-HT2A receptor (unknown origin) incubated for 60 mins followed by 10 mins incubation in dark at room temperature by FLIPR method; format: functional
[8] = molecular target: T2, 5-hydroxytryptamine receptor 2B; assay: Antagonist activity at 5-HT2B receptor (unknown origin) incubated for 60 mins followed by 10 mins incubation in dark at room temperature by FLIPR method; format: functional
[9] = molecular target: T3, 5-hydroxytryptamine receptor 2C; assay: Antagonist activity at 5-HT2C receptor (unknown origin) incubated for 60 mins followed by 10 mins incubation in dark at room temperature by FLIPR method; format: functional

Chain of Serotonin 2 receptors; 5-HT2a & 5-HT2c (Homo sapiens) (P28223 whole entry, looked up, one chain of several): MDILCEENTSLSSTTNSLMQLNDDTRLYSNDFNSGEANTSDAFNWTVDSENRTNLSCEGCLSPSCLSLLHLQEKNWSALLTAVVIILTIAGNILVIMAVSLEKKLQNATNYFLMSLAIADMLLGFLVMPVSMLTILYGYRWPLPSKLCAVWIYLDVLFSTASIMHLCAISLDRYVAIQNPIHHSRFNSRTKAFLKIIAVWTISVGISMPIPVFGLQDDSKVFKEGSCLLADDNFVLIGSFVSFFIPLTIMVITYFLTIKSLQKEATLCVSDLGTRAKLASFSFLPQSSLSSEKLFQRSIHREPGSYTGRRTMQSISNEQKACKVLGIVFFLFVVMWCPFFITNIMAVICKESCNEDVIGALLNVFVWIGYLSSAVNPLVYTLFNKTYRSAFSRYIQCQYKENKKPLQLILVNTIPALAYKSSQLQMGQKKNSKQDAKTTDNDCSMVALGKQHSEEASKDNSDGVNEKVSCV
T1 sequence (P28223 whole entry): as the sequence (P28223 whole entry, looked up, one chain of several) above
T2 sequence (P41595 whole entry): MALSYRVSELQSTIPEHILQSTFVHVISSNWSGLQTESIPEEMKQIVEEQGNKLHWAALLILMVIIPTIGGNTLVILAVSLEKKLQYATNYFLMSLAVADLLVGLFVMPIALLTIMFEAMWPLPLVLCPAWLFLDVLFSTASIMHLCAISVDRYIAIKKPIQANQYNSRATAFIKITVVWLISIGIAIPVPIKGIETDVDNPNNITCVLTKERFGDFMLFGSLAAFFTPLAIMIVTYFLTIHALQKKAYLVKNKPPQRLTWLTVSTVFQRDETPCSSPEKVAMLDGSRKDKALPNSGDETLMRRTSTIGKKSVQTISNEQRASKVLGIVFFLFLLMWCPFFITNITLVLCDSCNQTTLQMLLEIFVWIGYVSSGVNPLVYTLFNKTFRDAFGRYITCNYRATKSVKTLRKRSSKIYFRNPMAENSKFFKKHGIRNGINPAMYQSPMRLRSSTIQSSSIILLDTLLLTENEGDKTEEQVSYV

IC50 [7] [nM] | IC50 [8] [nM] | IC50 [9] [nM] | SMILES | Ki [1] [nM] | Ki [2] [nM] | Ki [3] [nM] | Ratio Ki [4] | Ratio Ki (Homo sapiens [5]) | Ratio Ki (Homo sapiens [6])
 |  |  | CCCCCCOc1cc2c3c(c1OC)-c1cc(OC)c(OC)cc1C[C@@H]3N(C)CC2 | 213 | 105 | 82 | 2.6 | 1 | 2
 |  |  | COc1cc2c(cc1OC)-c1c(OC)c(OC3CCCCC3)cc3c1[C@H](C2)N(C)CC3 | 534 | 92 | 113 | 4.7 | 0.8 | 5.8
 |  |  | COc1cc2c(cc1OCc1ccc(Br)cc1)C[C@H]1c3c(cc(OC)c(OC)c3-2)CCN1C |  | 42 | 281 | 1.5 | 0.1 | 10
 |  |  | COc1cc2c(cc1OC)-c1c(OC)c(OC)cc3c1[C@H](C2)N(C)CC3 [GLAUCINE] |  | 119 | 328 | 2.9 | 0.4 | 8.1
 |  |  | CCCCCOc1cc2c3c(c1OC)-c1cc(OC)c(OC)cc1C[C@@H]3N(C)CC2 | 138 | 47 | 40 | 3.5 | 1 | 2.9
 |  |  | CCCC(C)Oc1cc2c3c(c1OC)-c1cc(OC)c(OC)cc1C[C@@H]3N(C)CC2 (some centres undefined) | 244 | 25 | 37 | 6.6 | 0.7 | 9.8
 |  |  | CCOc1cc2c(cc1OC)-c1c(OC)c(OC)cc3c1[C@H](C2)N(C)CC3 |  | 80 | 425 | 1.9 | 0.2 | 10.2
 |  |  | COc1cc2c(cc1OCc1ccccc1)C[C@H]1c3c(cc(OC)c(OC)c3-2)CCN1C |  | 192 | 179 | 1.2 | 1.1 | 1.1
 |  |  | COc1cc2c(cc1OCCF)C[C@H]1c3c(cc(OC)c(OC)c3-2)CCN1C |  | 48 | 542 | 2.1 | 0.1 | 24.1
 |  |  | CCCCCCOc1cc2c(cc1OC)-c1c(OC)c(OC)cc3c1[C@H](C2)N(C)CC3 |  | 53 | 614 | 0.9 | 0.1 | 10.8
 |  |  | CCCCOc1cc2c(cc1OC)-c1c(OC)c(OC)cc3c1[C@H](C2)N(C)CC3 |  | 56 | 450 | 0.6 | 0.1 | 4.8
 |  |  | COc1cc2c(cc1OC(C)C)C[C@H]1c3c(cc(OC)c(OC)c3-2)CCN1C |  | 45 | 559 | 1.3 | 0.1 | 16.7
 |  |  | C=CCOc1cc2c3c(c1OC)-c1cc(OC)c(OC)cc1C[C@@H]3N(C)CC2 | 101 | 16 | 50 | 2 | 0.3 | 6.3
 |  |  | COc1cc2c(cc1OC)-c1c(OC)c(OC(C)C)cc3c1[C@H](C2)N(C)CC3 | 587 | 156 | 190 | 3.1 | 0.8 | 3.8
 |  |  | CCC(C)Oc1cc2c3c(c1OC)-c1cc(OC)c(OC)cc1C[C@@H]3N(C)CC2 (some centres undefined) | 293 | 96 | 94 | 3.1 | 1 | 3.1
 |  |  | Cc1nc2sccn2c(=O)c1CCN1CCC(=C(c2ccc(F)cc2)c2ccc(F)cc2)CC1 [RITANSERIN] |  |  | 0.8 |  |  | 

IC50 [7] [nM] | IC50 [8] [nM] | IC50 [9] [nM] | SMILES | Ki [1] [nM] | Ki [2] [nM] | Ki [3] [nM] | Ratio Ki [4] | Ratio Ki (Homo sapiens [5]) | Ratio Ki (Homo sapiens [6])
 |  |  | COc1cc2c(cc1OC)-c1c(OC)c(OCCF)cc3c1[C@H](C2)N(C)CC3 |  | 629 | 1130 |  | 0.6 | 
 |  |  | CCCCCOc1cc2c(cc1OC)-c1c(OC)c(OC)cc3c1[C@H](C2)N(C)CC3 |  | 57 | 504 | 0.5 | 0.1 | 4.2
 |  |  | CCCC(C)Oc1cc2c(cc1OC)-c1c(OC)c(OC)cc3c1[C@H](C2)N(C)CC3 (some centres undefined) |  | 10 | 219 | 1.1 | 0.05 | 24.4
 |  |  | CCCCC(C)Oc1cc2c(cc1OC)-c1c(OC)c(OC)cc3c1[C@H](C2)N(C)CC3 (some centres undefined) |  | 33 | 274 | 1.6 | 0.1 | 13.5
 |  |  | C=CCOc1cc2c(cc1OC)-c1c(OC)c(OC)cc3c1[C@H](C2)N(C)CC3 |  | 55 | 543 | 0.7 | 0.1 | 7
 |  |  | COc1cc2c(cc1OC)-c1c(OC)c(OCC3CC3)cc3c1[C@H](C2)N(C)CC3 | 238 | 40 | 104 | 2.3 | 0.4 | 6
 |  |  | COc1cc2c(cc1OC1CCCCC1)C[C@H]1c3c(cc(OC)c(OC)c3-2)CCN1C |  | 53 | 614 | 0.9 | 0.1 | 10.8
 |  |  | COc1cc2c(cc1OCC1CC1)C[C@H]1c3c(cc(OC)c(OC)c3-2)CCN1C |  | 29 | 533 | 1.1 | 0.05 | 20.1
 |  |  | CCCCC(C)Oc1cc2c3c(c1OC)-c1cc(OC)c(OC)cc1C[C@@H]3N(C)CC2 (some centres undefined) | 155 | 82 | 72 | 2.2 | 1 | 1.9
 |  |  | CCCCOc1cc2c3c(c1OC)-c1cc(OC)c(OC)cc1C[C@@H]3N(C)CC2 | 187 | 15 | 47 | 4 | 0.3 | 12.5
 |  |  | Cn1ccc2cc3c(cc21)CCN3C(=O)Nc1cccnc1 |  | 20 |  |  |  | 
137 | 1230 | 161 | COc1cc2c(cc1OC)-c1c(OC)c(OCc3ccccc3)cc3c1[C@H](C2)N(C)CC3 | 22 | 48 | 4 | 5.5 | 12 | 0.5
 |  |  | CCOc1cc2c3c(c1OC)-c1cc(OC)c(OC)cc1C[C@@H]3N(C)CC2 | 512 | 153 | 340 | 1.5 | 0.5 | 3.3
 |  |  | CCC(C)Oc1cc2c(cc1OC)-c1c(OC)c(OC)cc3c1[C@H](C2)N(C)CC3 (some centres undefined) |  | 22 | 238 | 1.6 | 0.1 | 17.1
162 | 3000 | 436 | COc1cc2c(cc1OC)-c1c(OC)c(OCc3ccc(Br)cc3)cc3c1[C@H](C2)N(C)CC3 | 20 | 359 | 23 | 0.9 | 16 | 0.06
